Experimental data from US20210395262A1, “INHIBITORS OF HUMAN IMMUNODEFICIENCY VIRUS REPLICATION” (ViiV HEALTHCARE UK (NO.5) LIMITED, priority 2018, published 2021).

Assays:
recombinant NL4-3 virus = assay: HIV cell culture assay (antiviral activity, luciferase readout in MT-2 cells); assay type: cell-based; conditions: Human immunodeficiency virus 1, NL43, MT2
Method in brief: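 MT-2 cells infected for 4-5 days with NL4-3 reference virus carrying Renilla luciferase in place of part of nef, in presence of serial compound dilutions. Luciferase activity read with live-cell substrate. EC50 derived from median effect equation, slope parameter m.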

[1] = Compound cytotoxicity, XTT-based colorimetric assay; assay type: cell-based; conditions: human; uninfected MT2 cells, day 4, XTT; read-out: CC50
Method in brief: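 Run under the antiviral-assay protocol but without virus. Viability was read on day 4 and CC50 values were derived from the readout.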

Compound | EC50 (recombinant NL4-3 virus) | CC50 at 4 days [1]
Cn1nc(NS(C)(=O)=O)c2c(Cl)ccc(-n3c([C@H](Cc4cc(F)cc(F)c4)NC(=O)Cn4nc(C(F)F)c5c4C(F)(F)[C@@H]4C[C@H]54)nc4cc(N5CC=CC5)ccc4c3=O)c21 (atropisomer, axis not shown; (P)) [Example 31, N—((S)-1-((3P)-3-(4-chloro-1-methyl-3-(methylsulfonamido)-1H-indazol-7-yl)-7-(2,5-dihydro-1H-pyrrol-1-yl)-4-oxo-3,4-dihydroquinazolin-2-yl)-2-(3,5-difluorophenyl)ethyl)-2-((3bS,4aR)-3-(difluoromethyl)-5,5-difluoro-3b,4,4a,5-tetrahydro-1H-cyclopropa[3,4]cyclopenta[1,2-c]pyrazol-1-yl)acetamide] | 0.127 nM | > 500 nM
Cn1nc(NS(C)(=O)=O)c2c(Cl)ccc(-n3c([C@H](Cc4cc(F)cc(F)c4)NC(=O)Cn4nc(C(F)F)c5c4C(F)(F)[C@@H]4C[C@H]54)nc4cc(N5CCC(O)CC5)ccc4c3=O)c21 (atropisomer, axis not shown; (P)) [Example 24, N—((S)-1-((3P)-3-(4-chloro-1-methyl-3-(methylsulfonamido)-1H-indazol-7-yl)-7-(4-hydroxypiperidin-1-yl)-4-oxo-3,4-dihydroquinazolin-2-yl)-2-(3,5-difluorophenyl)ethyl)-2-((3bS,4aR)-3-(difluoromethyl)-5,5-difluoro-3b,4,4a,5-tetrahydro-1H-cyclopropa[3,4]cyclopenta[1,2-c]pyrazol-1-yl)acetamide] | 0.118 nM | > 500 nM
C[C@@H]1CN(c2ccc3c(=O)n(-c4ccc(Cl)c5c(NS(C)(=O)=O)nn(C)c45)c([C@H](Cc4cc(F)cc(F)c4)NC(=O)Cn4nc(C(F)F)c5c4C(F)(F)[C@@H]4C[C@H]54)nc3c2)C[C@H](C)O1 (atropisomer, axis not shown; (P)) [Example 15, N—((S)-1-((3P)-3-(4-chloro-1-methyl-3-(methylsulfonamido)-1H-indazol-7-yl)-7-((2S,6R)-2,6-dimethylmorpholino)-4-oxo-3,4-dihydroquinazolin-2-yl)-2-(3,5-difluorophenyl)ethyl)-2-((3bS,4aR)-3-(difluoromethyl)-5,5-difluoro-3b,4,4a,5-tetrahydro-1H-cyclopropa[3,4]cyclopenta[1,2-c]pyrazol-1-yl)acetamide] | 0.035 nM | > 10000 nM
C[C@@H]1CN(c2ccc3c(=O)n(-c4ccc(Cl)c5c(NS(C)(=O)=O)nn(C)c45)c([C@H](Cc4cc(F)cc(F)c4)NC(=O)Cn4nc(C(F)F)c5c4C(F)(F)[C@@H]4C[C@H]54)nc3c2)C[C@H](C)N1C (atropisomer, axis not shown; (P)) [Example 16, N—((S)-1-((3P)-3-(4-chloro-1-methyl-3-(methylsulfonamido)-1H-indazol-7-yl)-4-oxo-7-((3S,5R)-3,4,5-trimethylpiperazin-1-yl)-3,4-dihydroquinazolin-2-yl)-2-(3,5-difluorophenyl)ethyl)-2-((3bS,4aR)-3-(difluoromethyl)-5,5-difluoro-3b,4,4a,5-tetrahydro-1H-cyclopropa[3,4]cyclopenta[1,2-c]pyrazol-1-yl)acetamide] | 0.08 nM | > 1000 nM
C[C@@H]1CN(c2ccc3c(=O)n(-c4ccc(Cl)c5c(NS(C)(=O)=O)nn(C)c45)c([C@H](Cc4cc(F)cc(F)c4)NC(=O)Cn4nc(C(F)(F)F)c5c4C(F)(F)[C@@H]4C[C@H]54)nc3c2)C[C@H](C)O1 (atropisomer, axis not shown; (P)) [Example 54, N—((S)-1-((3P)-3-(4-chloro-1-methyl-3-(methylsulfonamido)-1H-indazol-7-yl)-7-((2S,6R)-2,6-dimethylmorpholino)-4-oxo-3,4-dihydroquinazolin-2-yl)-2-(3,5-difluorophenyl)ethyl)-2-((3bS,4aR)-5,5-difluoro-3-(trifluoromethyl)-3b,4,4a,5-tetrahydro-1H-cyclopropa[3,4]cyclopenta[1,2-c]pyrazol-1-yl)acetamide] | 0.073 nM | > 500 nM
C[C@@H]1CN(c2ccc3c(=O)n(-c4ccc(Cl)c5c(NS(C)(=O)=O)nn(CC(F)F)c45)c([C@H](Cc4cc(F)cc(F)c4)NC(=O)Cn4nc(C(F)F)cc4C4CC4)nc3c2)C[C@H](C)O1 [Example 46, N—((S)-1-((3P)-3-(4-chloro-1-(2,2-difluoroethyl)-3-(methylsulfonamido)-1H-indazol-7-yl)-7-((2S,6R)-2,6-dimethylmorpholino)-4-oxo-3,4-dihydroquinazolin-2-yl)-2-(3,5-difluorophenyl)ethyl)-2-(5-cyclopropyl-3-(difluoromethyl)-1H-pyrazol-1-yl)acetamide] | 0.58 nM | > 500 nM
C[C@@H]1CN(c2ccc3c(=O)n(-c4ccc(Cl)c5c(NS(=O)(=O)C6CC6)nn(CC(F)F)c45)c([C@H](Cc4cc(F)cc(F)c4)NC(=O)Cn4nc(C(F)F)cc4C(F)F)nc3c2)C[C@H](C)O1 (atropisomer, axis not shown; (P)) [Example 38, 2-(3,5-bis(difluoromethyl)-1H-pyrazol-1-yl)-N—((S)-1-((3P)-3-(4-chloro-3-(cyclopropanesulfonamido)-1-(2,2-difluoroethyl)-1H-indazol-7-yl)-7-((2S,6R)-2,6-dimethylmorpholino)-4-oxo-3,4-dihydroquinazolin-2-yl)-2-(3,5-difluorophenyl)ethyl)acetamide] | 1.22 nM | > 1000 nM
O=C(Cn1nc(C(F)F)cc1C1CC1)N[C@@H](Cc1cc(F)cc(F)c1)c1nc2cc(N3CCOCC3)ccc2c(=O)n1-c1ccc(Cl)c2c(NS(=O)(=O)C3CC3)nn(CC(F)F)c12 (atropisomer, axis not shown; (P)) [Example 40, (S)—N-(1-((3P)-3-(4-chloro-3-(cyclopropanesulfonamido)-1-(2,2-difluoroethyl)-1H-indazol-7-yl)-7-morpholino-4-oxo-3,4-dihydroquinazolin-2-yl)-2-(3,5-difluorophenyl)ethyl)-2-(5-cyclopropyl-3-(difluoromethyl)-1H-pyrazol-1-yl)acetamide] | 0.361 nM | > 1000 nM
C[C@@H]1CN(c2ccc3c(=O)n(-c4ccc(Cl)c5c(NS(C)(=O)=O)nn(C)c45)c([C@H](Cc4cc(F)cc(F)c4)NC(=O)Cc4cn(C5CC5)c5ccccc45)nc3c2)C[C@H](C)O1 (atropisomer, axis not shown; (P)) [Example 53, N—((S)-1-((3P)-3-(4-chloro-1-methyl-3-(methylsulfonamido)-1H-indazol-7-yl)-7-((2S,6R)-2,6-dimethylmorpholino)-4-oxo-3,4-dihydroquinazolin-2-yl)-2-(3,5-difluorophenyl)ethyl)-2-(1-cyclopropyl-1H-indol-3-yl)acetamide] | 0.81 nM | > 500 nM
C[C@@H]1CN(c2ccc3c(=O)n(-c4ccc(Cl)c5c(NS(C)(=O)=O)nn(CC(F)(F)F)c45)c([C@H](Cc4cc(F)cc(F)c4)NC(=O)Cn4nc(C(F)F)c5c4C(F)(F)[C@@H]4C[C@H]54)nc3c2)C[C@H](C)O1 (atropisomer, axis not shown; (P)) [Example 58, N—((S)-1-((3P)-3-(4-chloro-3-(methylsulfonamido)-1-(2,2,2-trifluoroethyl)-1H-indazol-7-yl)-7-((2S,6R)-2,6-dimethylmorpholino)-4-oxo-3,4-dihydroquinazolin-2-yl)-2-(3,5-difluorophenyl)ethyl)-2-((3bS,4aR)-3-(difluoromethyl)-5,5-difluoro-3b,4,4a,5-tetrahydro-1H-cyclopropa[3,4]cyclopenta[1,2-c]pyrazol-1-yl)acetamide] | 0.053 nM | > 500 nM
C[C@@H]1CN(c2ccc3c(=O)n(-c4ccc(Cl)c5c(NS(=O)(=O)C6CC6)nn(CC(F)(F)F)c45)c([C@H](Cc4cc(F)cc(F)c4)NC(=O)Cn4nc(C(F)F)c5c4C(F)(F)[C@@H]4C[C@H]54)nc3c2)C[C@H](C)O1 (atropisomer, axis not shown; (P)) [Example 62, N—((S)-1-((3P)-3-(4-chloro-3-(cyclopropanesulfonamido)-1-(2,2,2-trifluoroethyl)-1H-indazol-7-yl)-7-((2S,6R)-2,6-dimethylmorpholino)-4-oxo-3,4-dihydroquinazolin-2-yl)-2-(3,5-difluorophenyl)ethyl)-2-((3bS,4aR)-3-(difluoromethyl)-5,5-difluoro-3b,4,4a,5-tetrahydro-1H-cyclopropa[3,4]cyclopenta[1,2-c]pyrazol-1-yl)acetamide] | 0.067 nM | > 500 nM
CCS(=O)(=O)Nc1nn(C)c2c(-n3c([C@H](Cc4cc(F)cc(F)c4)NC(=O)Cn4nc(C(F)F)c5c4C(F)(F)[C@@H]4C[C@H]54)nc4cc(N5CCOCC5)ccc4c3=O)ccc(Cl)c12 (atropisomer, axis not shown; (P)) [Example 65, N—((S)-1-((3P)-3-(4-chloro-3-(ethylsulfonamido)-1-methyl-1H-indazol-7-yl)-7-morpholino-4-oxo-3,4-dihydroquinazolin-2-yl)-2-(3,5-difluorophenyl)ethyl)-2-((3bS,4aR)-3-(difluoromethyl)-5,5-difluoro-3b,4,4a,5-tetrahydro-1H-cyclopropa[3,4]cyclopenta[1,2-c]pyrazol-1-yl)acetamide] | 0.051 nM | > 500 nM
CCCS(=O)(=O)Nc1nn(C)c2c(-n3c([C@H](Cc4cc(F)cc(F)c4)NC(=O)Cn4nc(C(F)F)c5c4C(F)(F)[C@@H]4C[C@H]54)nc4cc(N5CCOCC5)ccc4c3=O)ccc(Cl)c12 (atropisomer, axis not shown; (P)) [Example 66, N—((S)-1-((3P)-3-(4-chloro-1-methyl-3-(propylsulfonamido)-1H-indazol-7-yl)-7-morpholino-4-oxo-3,4-dihydroquinazolin-2-yl)-2-(3,5-difluorophenyl)ethyl)-2-((3bS,4aR)-3-(difluoromethyl)-5,5-difluoro-3b,4,4a,5-tetrahydro-1H-cyclopropa[3,4]cyclopenta[1,2-c]pyrazol-1-yl)acetamide] | 0.066 nM | > 500 nM
